Measurements: patent US5098613A, “Anti-inflammatory agents” (Eli Lilly and Company, priority 1990, dated 1992)
Like-named read-outs stand apart in the source and are kept apart here.

Biological target: T1, leukotriene B4 specific receptor on the membrane of human neutrophils (Homo sapiens, UniProt Q15722)
T1 construct: incubating neutrophils (1×10^7 cells) with 0.1-0.2 nM ^3 H-LTB4; endogenous in cells; host or cells: human peripheral blood neutrophils (buffy coats of two blood donors)
Assay: Inhibition of Binding of ^3 H-LTB4 to Peripheral Human Neutrophils
Conditions: for inhibition at 10 µM: read-out: LTB4 Binding Inhibition; for inhibition at 1 µM: drug concentration 10^-6 M; for inhibition at 0.1 µM: drug concentration 10^-7 M
Protocol: The effectiveness of compounds to inhibit the binding of leukotriene B4 to a specific receptor on the membrane of human neutrophils was measured by using an adaptation of a radio-ligand binding assay developed by Goldman and Goetzl, J. Immunol., 129, 1600 (1982). Other investigators have developed similar assays (see, e.g., Kreisle, et al., J. Exp. Med., 157, 628 (1983) and Lin, et al., Prostaglandins, 28, 837 (1984)).
Cells used in the assay were isolated by standard techniques of centrifugation on Ficol-Hypaque, dextran 70 sedimentation and hypotonic lysis. The following procedure was used. Freshly-prepared buffy coat layers from two individuals were obtained from a local blood donor center. The cells were mixed and diluted to 484 ml. with phosphate buffered saline containing heparin (10 units/ml) and heat-inactivated calf serum (5%). This was divided into 20 ml. aliquots and the aliquots layered on top of Ficoll-Paque (12 ml.). The material was then centrifuged at 500 g. for 40 minutes at room temperature. The resulting upper layer of platelets and mononuclear cells was discarded. The lower layer containing erythrocytes and neutrophils was retained. Buffer was added (1 ml. per 4 ml. of lower layer) and the suspension mixed. For each milliliter of this mixture, 0.33 ml. of 6% Macrodex was added. After stirring, the cels were allowed to sediment for 1 hour at 37° C. The resulting erythrocyte pellet was discarded and the neutrophil enriched supernatant fluid centrifuged at 500 g. for 10 minutes at 4° C. Erythrocytes still present in this cell pellet were lysed by incubating the cells with 5-8 ml. ice-cold distilled water for 30-45 seconds. Subsequently, the volume was made up to 50 ml. by addition of ice-cold buffer and the cells resuspended. The suspension was then centrifuged at 300 g. for 10 minutes at 4° C. The cells were finally resuspended at a cell density of 2×10^7 cells/ml in the assay buffer. This buffer Consisted of Hanks' balanced salt solution and 0.1% ovalbumin (pH 7.3).
The radio-ligand binding assay was conducted by incubating neutrophils (1×10^7 cells) with 0.1-0.2 nM ^3 H-LTB4 (sp. act. 150-220 Curies/mmol) and test compound (1×10^-5 M and 1×10^-6 M) for 10 minutes at 4° C. The amount of bound ^3 H-LTB4 was then measured and compared with the amount bound in the absence of test compound. The assay was carried out in microcentrifuge tubes by adding first 10 μl test compound dissolved in DMSO, followed by adding 20 μl ^3 H-LTB4 diluted in assay buffer, and finally adding 500 μl of the cell suspension pension. At the end of the 10 minutes incubation, 300 μl of a mixture of dibutyl and dinonyl phthalate (7:2) were added and the tubes centrifuged for 2 minutes in a microcentrifuge. The radioactivity bound to the cell pellet was measured by scintillation spectroscopy. Appropriate corrections for nonspecific bonding of ^3 H-LTB4 were made.

[1] = drug concentration 10^-5 M, 4° C., 10 minutes

T1 sequence (Q15722 whole entry): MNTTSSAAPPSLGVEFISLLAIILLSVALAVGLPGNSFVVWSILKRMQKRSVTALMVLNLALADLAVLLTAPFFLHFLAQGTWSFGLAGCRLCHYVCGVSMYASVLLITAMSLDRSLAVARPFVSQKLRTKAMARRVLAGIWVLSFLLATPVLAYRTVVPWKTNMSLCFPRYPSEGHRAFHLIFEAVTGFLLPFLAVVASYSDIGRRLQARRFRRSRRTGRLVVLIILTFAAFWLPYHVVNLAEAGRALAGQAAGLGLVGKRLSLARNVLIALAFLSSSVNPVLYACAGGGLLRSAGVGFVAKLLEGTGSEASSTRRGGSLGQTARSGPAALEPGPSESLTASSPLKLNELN

inhibition at 10 µM [1]	inhibition at 1 µM (4° C., 10 minutes)	inhibition at 0.1 µM (4° C., 10 minutes)	Structure (SMILES)	inhibition at 10 µM
50%	9%		C=CCc1cc(C(C)=O)c(O)cc1OCCCCCC [Example 39, 4-(Hexyloxy)-2-hydroxy-5-allylacetophenone]	
19%	2%		C=CCc1cc(C(C)=O)c(O)cc1OCC#N [Example 25, (4-Acetyl-5-hydroxy-2-allylphenoxy)-acetonitrile]	
95%	55%		CCc1cc(C(C)=O)c(O)cc1OCCCC(C)(C)C(N)=O [Example 135, 5-(4-Acetyl-2-ethyl-5-hydroxyphenoxy)-2,2-dimethylpentamide]	
6%	12%		C=CCc1cc(C(C)=O)c(O)cc1OC [Example 42, 2-Hydroxy-4-methoxy-5-allylacetophenone]	
67%	22%		CCc1cc(C(C)=O)c(O)cc1OCc1cccc(C(F)(F)F)c1 [Example 58, 5-Ethyl-2-hydroxy-4-(3-trifluoromethyl-benzyloxy)acetophenone]	
90%	59%		CCc1cc(C(C)=O)c(O)cc1OCCCCCCCC(C)(C)C(=O)N(C)O [Example 150, N-Methyl-N-hydroxy-9-(4-acetyl-2-ethyl-5-hydroxyphenoxy)-2,2-dimethylnonanamide]	
90%	57%		CCOC(=O)Cn1nnc(CCCCOc2cc(O)c(C(C)=O)cc2CC)n1 [Example 141, 5-[4-(4-Acetyl-2-ethyl-5-hydroxyphenoxy)-butyl]-2H-tetrazole-2-acetic acid, ethyl ester]	
31%	8%		C=CCc1cc(C(C)=O)c(O)cc1OCCCCCCC [Example 37, 4-(Heptyloxy)-2-hydroxy-5-allylacetophenone]	
81%	29%		CCc1cc(C(C)=O)c(O)cc1OCCCCCn1cncn1 [Example 146]	
87%	37%		C=CCc1cc(C(C)=O)c(O)cc1OCCCCCC(N)=O [Example 96, 6-(4-Acetyl-5-hydroxy-2-allylphenoxy)hexanamide]	
44%	14%		CCc1cc(C(C)=O)c(O)cc1OCc1ccc(C(=O)O)c(O)c1 [Example 148, 4-[(4-Acetyl-2-ethyl-5-hydroxyphenoxy)methyl]-2-hydroxybenzoic acid]	
34%	5%		CCOC(=O)Cn1nnnc1CCCCOc1cc(O)c(C(C)=O)cc1CC [Example 142, 5-[4-(4-acetyl-2-ethyl-5-hydroxyphenoxy)butyl]-1H-tetrazole-1-acetic acid, ethyl ester]	
71 to 94%	14 to 59%		CCc1cc(C(C)=O)c(O)cc1OCCCCCCSC [Example 81, 2-Hydroxy-4-[6-(methylthio)hexyloxy]-5-ethylacetophenone]	
96%	51%		C=CCc1cc(C(C)=O)c(O)cc1OCCCCCC[S+](C)[O-] (stereo not drawn) [Example 79, 2-Hydroxy-4-[6-(methylsulfinyl)hexyloxy]-5-allylacetophenone]	
73%	29%		C#CCCCCOc1cc(O)c(C(C)=O)cc1CC=C [Example 57, 4-(5-Hexynyloxy)-2-hydroxy-5-allylaceto-phenone]	
101%	82%	45%	CCc1cc(C(C)=O)c(O)cc1OCCCCCC(C)(C)C(N)=O [Example 101, 7-(4-Acetyl-2-ethyl-5-hydroxyphenoxy)-2,2-methylheptanamide]	
85%	50%		C=CCc1cc(C(C)=O)c(O)cc1OCCCCCCCCC#N [Example 23, 9-(4-Aoetyl-5-hydroxy-2-allylphenoxy)-nonanenitrile]	
98%	58%		CCc1cc(C(C)=O)c(O)cc1OCCCCCNC(C)=O [Example 138, N-[5-(4-Acetyl-2-ethyl-5-hydroxyphenoxy)-pentyl]acetamide]	
59%	22%		C=CCc1cc(C(C)=O)c(O)cc1OCCCCC [Example 41, 4-Pentyloxy-2-hydroxy-5-allylaceto-phenone]	
86%	37%		CCc1cc(C(C)=O)c(O)cc1OCCCCCCC(=O)O [Example 85, 7-(4-Acetyl-2-ethyl-5-hydroxyphenoxy)heptanoio acid]	
81%	32%		C=CCc1cc(C(C)=O)c(O)cc1OCCCCCC#N [Example 21, 6-(4-Acetyl-5-hydroxy-2-allylphenoxy)-hexanenitrile]	
105%	103%	78%	CCc1cc(CC)c(OCCCCCC(C)(C)c2nnn[nH]2)cc1O [Example 151, 2,4-Diethyl-5-{[6-methyl-6-(1H-tetrazol-5-yl)heptyl]oxy}phenol]	
5%	3%		CC(=O)c1cc(C=O)c(OCCCCC#N)cc1O [Example 18, 5-(4-Acetyl-5-hydroxy-2-formylphenoxy)-pentanenitrile]	
89%	48%		CCc1cc(C(C)=O)c(O)cc1OCCCC(C)(C)C#N [Example 133, 5-(4-Acetyl-2ethyl-5-hydroxyphenoxy)-2,2-dimethylpentanitrile]	
46%	5%		C=CCc1cc(C(C)=O)c(O)cc1OCCCC#N [Example 26, 4-(4-Acetyl-5-hydroxy-2-allylphenoxy)-butanenitrile]	
93%	45%		CCc1cc(C(C)=O)c(O)cc1OCCCC(C)(C)C(=O)O [Example 134, 5-(4-Acetyl-2ethyl-5-hydroxyphenoxy)-2,2-dimethylpentanoic acid]	
12%	6%		C=CCc1cc(C(C)=O)c(O)cc1OCc1cccc(CC#N)c1 [Example 60, 3-[(4-Acetyl-5-hydroxy-2-allylphenoxy)-methyl]benzeneacetonitrile]	
97%	59%		C=CCc1cc(C(C)=O)c(O)cc1OCCCCCC(C)(C)O [Example 103, 2-Hydroxy-4-(6-hydroxy-6-methylheptyloxy)-5-allylacetophenone]	

Structure (SMILES)	inhibition at 10 µM [1]	inhibition at 1 µM (4° C., 10 minutes)	inhibition at 0.1 µM (4° C., 10 minutes)	inhibition at 10 µM
C=CCc1cc(C(C)=O)c(O)cc1OCCCCCCS(C)(=O)=O [Example 80, 2-hydroxy-4-[6-(methylsulfonyl)-hexyloxy]-5-allylacetophenone]		62%		100%
CCc1cc(C(C)=O)c(O)cc1OCCCCCCC(=O)NC [Example 99, 7-(-Acetyl-2-ethyl-5-hydroxyphenoxy)N-methylheptanamide]		54%		97%
C=CCc1cc(C(C)=O)c(O)cc1OCCCCc1nnn(C)n1 [Example 120, 2-Hydroxy-4-[4-(2-methyl-2H-tetrazol5-yl)butoxy]-5-allylacetophenone]	97%	55%		
C=CCc1cc(C(=O)CCCC(=O)O)c(O)cc1OCCCCC#N [Example 106, 5-[4-(4-Cyanobutoxy)-2-hydroxy-5-allylphenyl)-5-oxopentanoic acid]	9%	1%		
